According to ChEMBL document CHEMBL2346627, “Synthesis and cytotoxicity evaluation of oleanolic acid derivatives” (Bioorg Med Chem Lett, 2013):
The source made the active and inactive calls. The rule behind the calls is not given here.

What was measured:
HepG2 = test: Cytotoxicity against human HepG2 cells; assay type: functional, cell-based
MCF7 [1] = test: Cytotoxicity against human MCF7 cells by MTT assay; assay type: functional, cell-based
PC-3 [2] = test: Cytotoxicity against human PC3 cells by MTT assay; assay type: functional, cell-based
BGC-823 = test: Cytotoxicity against human BGC823 cells by MTT assay; assay type: functional, cell-based
A549 = test: Cytotoxicity against human A549 cells by MTT assay; assay type: functional, cell-based
PC-3 [3] = test: Ratio of oleanolic acid IC50 to compound IC50 for human PC3 cells; assay type: functional
PC-3 [4] = test: Ratio of adriamycin IC50 to compound IC50 for human PC3 cells; assay type: functional
MCF7 [5] = test: Ratio of oleanolic acid IC50 to compound IC50 for human MCF7 cells; assay type: functional

Row | Compound | IC50 (HepG2) | IC50 (MCF7 [1]) | IC50 (PC-3 [2]) | IC50 (BGC-823) | IC50 (A549) | Ratio IC50 (PC-3 [3]) | Ratio IC50 (PC-3 [4]) | inhibition (MCF7 [1]) | Ratio IC50 (MCF7 [5])
1 | COC(=O)[C@]12CCC(C)(C)C[C@@H]1C1=CC[C@@H]3[C@@]4(C)CC[C@H](N)C(C)(C)[C@@H]4CC[C@@]3(C)[C@]1(C)CC2 | 4 µM |  |  |  |  |  |  |  | 
2 | COc1cccc2c1C(=O)c1c(O)c3c(c(O)c1C2=O)C[C@@](O)(C(=O)CO)C[C@@H]3O[C@H]1C[C@H](N)[C@H](O)[C@H](C)O1 [DOXORUBICIN] |  | 1.65 µM |  |  |  |  |  |  | 
3 | CC1(C)CC[C@]2(C(=O)OCC(=O)O)CC[C@]3(C)C(=CC[C@@H]4[C@@]5(C)CC[C@H](OC(=O)CCC(=O)O)C(C)(C)[C@@H]5CC[C@]43C)[C@@H]2C1 |  | 805 µM | 7.72 µM | 13.4 µM | 11.9 µM |  |  |  | 
4 | CC1(C)CC[C@]2(C(=O)O)CC[C@]3(C)C(=CC[C@@H]4[C@@]5(C)CC[C@H](OC(=O)C[C@H](O)C(=O)O)C(C)(C)[C@@H]5CC[C@]43C)[C@@H]2C1 |  | 16.2 µM | 0.39 µM | 4.18 µM | 0.71 µM | 17 | 1.7 |  | 
5 | CC1(C)CC[C@]2(C(=O)O)CC[C@]3(C)C(=CC[C@@H]4[C@@]5(C)CC[C@H](OC(=O)CCC(=O)NCCS(=O)(=O)O)C(C)(C)[C@@H]5CC[C@]43C)[C@@H]2C1 |  | 5.19 µM | 0.83 µM | 7.32 µM | 1.31 µM | 17 |  |  | 
6 | CC1(C)CC[C@]2(C(=O)O)CC[C@]3(C)C(=CC[C@@H]4[C@@]5(C)CC[C@H](OC(=O)CCC(=O)O)C(C)(C)[C@@H]5CC[C@]43C)[C@@H]2C1 [OLEANOLIC ACID 3-O-SUCCINATE] |  | 60.7 µM | 7.11 µM | 5.59 µM | 6.57 µM |  |  |  | 
7 | CC1(C)CC[C@]2(C(=O)O)CC[C@]3(C)C(=CC[C@@H]4[C@@]5(C)CC[C@H](OC(=O)CCn6ccnc6)C(C)(C)[C@@H]5CC[C@]43C)[C@@H]2C1 |  |  | 50.5 µM | 76.3 µM | 0.22 µM |  |  | inactive | 
8 | CC1(C)CC[C@]2(C(=O)OCC(=O)O)CC[C@]3(C)C(=CC[C@@H]4[C@@]5(C)CC[C@H](OC(=O)CCC(=O)NCCS(=O)(=O)O)C(C)(C)[C@@H]5CC[C@]43C)[C@@H]2C1 |  | 51.7 µM | 10.4 µM | 84.5 µM | 268 µM |  |  |  | 
9 | CC1(C)CC[C@]2(C(=O)OCC(=O)O)CC[C@]3(C)C(=CC[C@@H]4[C@@]5(C)CC[C@H](OC(=O)C[C@H](O)C(=O)O)C(C)(C)[C@@H]5CC[C@]43C)[C@@H]2C1 |  | 35.1 µM | 8.07 µM | 9.36 µM | 19.3 µM |  |  |  | 
10 | CC1(C)CC[C@]2(C(=O)O)CC[C@]3(C)C(=CC[C@@H]4[C@@]5(C)CC[C@H](OC(=O)CN6CCOCC6)C(C)(C)[C@@H]5CC[C@]43C)[C@@H]2C1 |  | 14.9 µM | 6.29 µM | 24.5 µM | 8.27 µM |  |  |  | 
11 | CC1(C)CC[C@]2(C(=O)O)CC[C@]3(C)C(=CC[C@@H]4[C@@]5(C)CC[C@H](OC(=O)CCN6CCCC6)C(C)(C)[C@@H]5CC[C@]43C)[C@@H]2C1 |  | 1.98 µM | 5.45 µM | 27.2 µM | 6.12 µM |  |  |  | 17
12 | CC1(C)CC[C@]2(C(=O)O)CC[C@]3(C)C(=CC[C@@H]4[C@@]5(C)CC[C@H](OC(=O)CCN6CCOCC6)C(C)(C)[C@@H]5CC[C@]43C)[C@@H]2C1 |  | 718 µM | 6.38 µM | 81.9 µM | 728 µM |  |  |  | 
13 | CC1(C)CC[C@]2(C(=O)O)CC[C@]3(C)C(=CC[C@@H]4[C@@]5(C)CC[C@H](OC(=O)Cn6ccnc6)C(C)(C)[C@@H]5CC[C@]43C)[C@@H]2C1 |  | 894 µM | 57.5 µM | 16.3 µM | 16.9 µM |  |  |  | 
14 | CC1(C)CC[C@]2(C(=O)O)CC[C@]3(C)C(=CC[C@@H]4[C@@]5(C)CC[C@H](O)C(C)(C)[C@@H]5CC[C@]43C)[C@@H]2C1 [OLEANOLIC_ACID] |  | 35.4 µM | 6.51 µM | 2.59 µM | 0.39 µM |  |  |  | 
15 | CC1(C)CC[C@]2(C(=O)O)CC[C@]3(C)C(=CC[C@@H]4[C@@]5(C)CC[C@H](OC(=O)CN6CCCC6)C(C)(C)[C@@H]5CC[C@]43C)[C@@H]2C1 |  | 12.9 µM | 28.3 µM | 87.2 µM | 8.53 µM |  |  |  | 
